Results taken from patent publication US11834450B2, “Compounds having ((3-nitrophenyl)sulfonyl)acetamide as BCL-2 inhibitors” (Eil Therapeutics, Inc., priority 2021, dated 2023).
Like-named read-outs stand apart in the source and are kept apart here.

Experiments:
[1] = system: caspase-3 and -7 activities in RS4-11 cells; assay: Cas-3/7 activation (Caspase-Glo 3/7) in RS4-11 cells; type: cell-based; details: Homo sapiens, 3.5 h at 37° C. and 30 min at r.t., read-out: Cas-3/7 (EC50 code)
Method: Assay Principle: The Caspase-Glo 3/7 Assay is homogeneous, luminescent assay that measures caspase-3 and -7 activities. The assay provides a luminogenic caspase-3/7 substrate, which contains the tetrapeptide sequence DEVD, in a reagent optimized for caspase activity.
Assay Procedure: Incubate RS4-11 cells with varying concentrations of test compounds for 3.5 h in a humidified incubator at 37° C. and 5% CO2 and 30 min at r.t. Add 15 μl Caspase-Glo reagent to each well and incubate the plate for 30 min at r.t. Read on ClarioStar Plus instrument.
Materials: Promega Caspase-Glo (Promega, #8212); Frozen RS4-11 cells; 384-well white plate (Corning, #3570).
Instrumentation: ClarioStar Plus; Biomek FX for liquid handling (Beckman Coulter).

[2] = Cell viability assay HEK293 (CellTiter-Glo); type: cell-based; details: human, HEK293 cells, read-out: HEK293 (CC50 code)
Method: (§1) Assay Condition: Used culture medium for HEK293-DMEM (PanEco, Cat #C420), for the rest of the cell lines—culture medium RPMI-1640 (PanEco, Cat #C363).
(§2) Assay Procedure: Compounds were prepared as 200× stocks with serial dilution in 100% DMSO with a final concentration of 1×. Dispersed 40 μl in 384-well plates at a concentration of 2000 cells per well for HEK293 and at a concentration of 4000 cells per well for the rest of the cell lines using a robotic station Biomek (Beckman). Before adding compounds, the cells were incubated at 37° C. (HEK293 were incubated for a day before adding compounds).
(§3) A dilution plate was prepared by pouring 78 μl of the appropriate culture medium using a robotic station Biomek (Beckman). Sequentially, using a robotic station, 2 μl of substances were taken and added to 78 μl of culture medium (dilution of compounds 40×). Took from there 10 μl and added to the plates to the cells (dilution of compounds 5×). The plates were incubated for 3 days at a temperature 37° C. After 3 days, 10 μl of CellTiter-Glo (Promega) was added to the cells and the luminescence was measured.

MOLT-4 cells = assay: Cell viability assay MOLT-4 (CellTiter-Glo); type: cell-based; details: Homo sapiens, read-out: MOLT-4 (CC50 code)
Method: as §1, §2, §3

RS4-11 cells = assay: Cell viability assay RS4-11 (CellTiter-Glo); type: cell-based; details: Homo sapiens, read-out: RS4-11 (CC50 code)
Method: as §1, §2, §3

BCL-2 = biological target: T1, BCL-2 (Homo sapiens, UniProt P10415); assay: BCL-2 TR-FRET Assay (primary PPI inhibition); type: binding; details: 60 min incubation; read-out: BCL2 (IC50 code, BCL-2 TR-FRET)
T1 construct: purchased BPS Bioscience #50222

BCL-XL = biological target: T2, BCL-XL (Homo sapiens, UniProt Q07817); assay: BCL-XL TR-FRET Assay (primary PPI inhibition); type: binding; details: 60 min incubation; read-out: BCLxL (IC50 code, BCL-XL TR-FRET)
T2 construct: purchased BPS Bioscience #50223
Method: BCL-XL TR-FRET Assay (BPS Bioscience, #50223) Assay Condition: The following assay concentrations and times were used: 10.5 ng BCL-XL, 5 ul of 1:100 anti-His Tb-labeled donor, 5 ul of 1:100 Dye-labeled acceptor, 5 ul of 1:80 BCL-XL Peptide Ligand, and 2 ul of test compound, with 60 min incubation time. The results of the assay were read using a Clariostar (BMG Labtech) plate reader with the following parameters: TR FRET, 340 ex/620 and 665 em; 60 μsec Delay; and 500 μsec integration.

[3] = 72 h, MOLT-4 cells, 3 days, CellTiter-Glo
[4] = 72 h, RS4-11 cells, 3 days, CellTiter-Glo

T2 sequence (Q07817 whole entry): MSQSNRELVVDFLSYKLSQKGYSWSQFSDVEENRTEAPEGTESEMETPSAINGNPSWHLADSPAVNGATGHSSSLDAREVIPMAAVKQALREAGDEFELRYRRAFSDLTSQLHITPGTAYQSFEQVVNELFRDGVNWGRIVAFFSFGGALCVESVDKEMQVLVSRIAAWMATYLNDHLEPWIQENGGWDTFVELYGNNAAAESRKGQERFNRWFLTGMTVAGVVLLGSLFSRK
T1 sequence (P10415 whole entry): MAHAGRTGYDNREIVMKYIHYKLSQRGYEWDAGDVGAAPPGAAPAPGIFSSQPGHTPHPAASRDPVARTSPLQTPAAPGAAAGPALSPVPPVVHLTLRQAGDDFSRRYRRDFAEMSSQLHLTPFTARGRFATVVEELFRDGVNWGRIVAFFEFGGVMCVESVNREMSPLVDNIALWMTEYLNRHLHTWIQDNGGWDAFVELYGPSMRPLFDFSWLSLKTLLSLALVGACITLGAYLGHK

Row | SMILES | EC50 [1] [nM] | CC50 at 3 days [2] [nM] | CC50 (MOLT-4 cells; [3]) [nM] | CC50 (RS4-11 cells; [4]) [nM] | IC50 (BCL-2) [nM] | CC50 (MOLT-4 cells; MOLT-4, 72 h) [nM] | IC50 (BCL-XL) [nM] | CC50 (RS4-11 cells; RS4-11, 72 h) [nM]
1 | CC(C)C(=O)N1C[C@H](CN2CCN(c3ccc(C(=O)NS(=O)(=O)c4ccc(NCC5CCOCC5)c([N+](=O)[O-])c4)c(Oc4cnc5[nH]ccc5c4)c3)CC2)[C@@H](c2ccc(Cl)cc2)C1 [Compound 30, 4-[4-[[(3S,4S)-4-(4-chlorophenyl)-1-(2-methylpropanoyl)pyrrolidin-3-yl]methyl]piperazin-1-yl]-N-[3-nitro-4-(tetrahydropyran-4-ylmethylamino)phenyl]sulfonyl-2-(1H-pyrrolo[2,3-b]pyridin-5-yloxy)benzamide] | > 250 | > 25000 | 2000 to 10000 | > 200 |  |  |  | 
2 | O=C(NS(=O)(=O)c1ccc(NCC2CCOCC2)c([N+](=O)[O-])c1)c1ccc(N2CCC(CN3CCCCCC3c3ccc(Cl)cc3)CC2)cc1Oc1cnc2[nH]ccc2c1 (stereo not drawn) [Compound 44, 4-[4-[[2-(4-chlorophenyl)azepan-1-yl]methyl]-1-piperidyl]-N-[3-nitro-4-(tetrahydropyran-4-ylmethylamino)phenyl]sulfonyl-2-(1H-pyrrolo[2,3-b]pyridin-5-yloxy)benzamide] | > 250 | > 25000 | 2000 to 10000 | > 200 | > 50 |  |  | 
3 | O=C(NS(=O)(=O)c1ccc(NCC2CCOCC2)c([N+](=O)[O-])c1)c1ccc(N2CCN(C[C@@H]3Cc4cc(Cl)ccc4CN3C(=O)C3CC3)CC2)cc1Oc1cnc2[nH]ccc2c1 [Compound 42, 4-[4-[[(3S)-6-chloro-2-(cyclopropanecarbonyl)-3,4-dihydro-1H-isoquinolin-3-yl]methyl]piperazin-1-yl]-N-[3-nitro-4-(tetrahydropyran-4-ylmethylamino)phenyl]sulfonyl-2-(1H-pyrrolo[2,3-b]pyridin-5-yloxy)benzamide] | > 250 | > 25000 | 2000 to 10000 | > 200 |  |  |  | 
4 | O=C(NS(=O)(=O)c1ccc(NCC2CCOCC2)c([N+](=O)[O-])c1)c1ccc(N2CCN(CC3CCC=CC3c3ccc(Cl)cc3)CC2)cc1Oc1cnc2[nH]ccc2c1 (stereo not drawn) [Compound 67, 4-[4-[[2-(4-chlorophenyl)cyclohex-3-en-1-yl]methyl]piperazin-1-yl]-N-[3-nitro-4-(tetrahydropyran-4-ylmethylamino)phenyl]sulfonyl-2-(1H-pyrrolo[2,3-b]pyridin-5-yloxy)benzamide] | > 250 |  |  |  | 10 to 50 |  |  | 
5 | O=C(NS(=O)(=O)c1ccc(NCC2CCOCC2)c([N+](=O)[O-])c1)c1ccc(N2CCC(CN3CC4(CCCC4)C3c3ccccc3)CC2)cc1Oc1cnc2[nH]ccc2c1 (stereo not drawn) [Compound 27, N-[3-nitro-4-(tetrahydropyran-4-ylmethylamino)phenyl]sulfonyl-4-[4-[(3-phenyl-2-azaspiro[3.4]octan-2-yl)methyl]-1-piperidyl]-2-(1H-pyrrolo[2,3-b]pyridin-5-yloxy)benzamide] |  | > 25000 |  |  | > 50 | 2000 to 10000 | 2000 to 4000 | > 200
6 | CC1=CC[C@H](CN2CCN(c3ccc(C(=O)NS(=O)(=O)c4ccc(NCC5CCOCC5)c([N+](=O)[O-])c4)c(Oc4cnc5[nH]ccc5c4)c3)CC2)[C@@H](c2ccc(Cl)cc2)C1 [Compound 31, 4-[4-[[(1S,6S)-6-(4-chlorophenyl)-4-methyl-cyclohex-3-en-1-yl]methyl]piperazin-1-yl]-N-[3-nitro-4-(tetrahydropyran-4-ylmethylamino)phenyl]sulfonyl-2-(1H-pyrrolo[2,3-b]pyridin-5-yloxy)benzamide] | 100 to 250 | 10000 to 25000 | 2000 to 10000 | 100 to 200 |  |  |  | 
7 | O=C(NS(=O)(=O)c1ccc(NCC2CCOCC2)c([N+](=O)[O-])c1)c1ccc(N2CCC(CN3CCCCC3c3ccc(Cl)cc3)CC2)cc1Oc1cccc(F)c1 (stereo not drawn) [Compound 62, 4-[4-[[2-(4-chlorophenyl)-1-piperidyl]methyl]-1-piperidyl]-2-(3-fluorophenoxy)-N-[3-nitro-4-(tetrahydropyran-4-ylmethylamino)phenyl]sulfonyl-benzamide] |  | 10000 to 25000 | 2000 to 10000 | > 200 | > 50 |  | ≤ 2000 | 
8 | O=C(NS(=O)(=O)c1ccc(NCC2CCOCC2)c([N+](=O)[O-])c1)c1ccc(N2CCN(C[C@H]3[C@H](c4ccc(Cl)cc4)[C@@H]4C=C[C@H]3C4)CC2)cc1Oc1cnc2[nH]ccc2c1 [Compound 68, 4-[4-[[(1R,2R,3R,4S)-3-(4-chlorophenyl)-2-bicyclo[2.2.1]hept-5-enyl]methyl]piperazin-1-yl]-N-[3-nitro-4-(tetrahydropyran-4-ylmethylamino)phenyl]sulfonyl-2-(1H-pyrrolo[2,3-b]pyridin-5-yloxy)benzamide] |  | 10000 to 25000 | 2000 to 10000 | > 200 | > 50 |  | > 4000 | 
9 | O=C1CC[C@H](CN2CCN(c3ccc(C(=O)NS(=O)(=O)c4ccc(NCC5CCOCC5)c([N+](=O)[O-])c4)c(Oc4cnc5[nH]ccc5c4)c3)CC2)[C@@H](c2ccc(Cl)cc2)N1 [Compound 70, 4-[4-[[(2S,3R)-2-(4-chlorophenyl)-6-oxo-3-piperidyl]methyl]piperazin-1-yl]-N-[3-nitro-4-(tetrahydropyran-4-ylmethylamino)phenyl]sulfonyl-2-(1H-pyrrolo[2,3-b]pyridin-5-yloxy)benzamide] |  | 10000 to 25000 | > 10000 | > 200 | > 50 |  | > 4000 | 
10 | O=C(NS(=O)(=O)c1ccc(NCC2CCOCC2)c([N+](=O)[O-])c1)c1ccc(N2CCN(C(c3ccccc3)c3ccc(F)cc3)CC2)cc1Oc1ccc2[nH]ccc2c1 (stereo not drawn) [Compound 12, 4-[4-[(4-fluorophenyl)-phenyl-methyl]piperazin-1-yl]-2-(1H-indol-5-yloxy)-N-[3-nitro-4-(tetrahydropyran-4-ylmethylamino)phenyl]sulfonyl-benzamide] |  | > 25000 | > 10000 | > 200 | > 50 |  | > 4000 | 
11 | O=C(NS(=O)(=O)c1ccc(NCC2CCOCC2)c([N+](=O)[O-])c1)c1ccc(N2CCN(C(c3ccccc3)c3ccccc3)CC2)cc1Oc1ccc2[nH]ccc2c1 [Compound 19, 4-(4-benzhydrylpiperazin-1-yl)-2-(1H-indol-5-yloxy)-N-[3-nitro-4-(tetrahydropyran-4-ylmethylamino)phenyl]sulfonyl-benzamide] |  | > 25000 | > 10000 | > 200 | > 50 |  | > 4000 | 
12 | O=C1CC[C@]2(c3ccc(Cl)cc3)C[C@@]2(CN2CCN(c3ccc(C(=O)NS(=O)(=O)c4ccc(NCC5CCOCC5)c([N+](=O)[O-])c4)c(Oc4cnc5[nH]ccc5c4)c3)CC2)C1 [Compound 77, 4-[4-[[(1R,6R)-6-(4-chlorophenyl)-3-oxo-norcaran-1-yl]methyl]piperazin-1-yl]-N-[3-nitro-4-(tetrahydropyran-4-ylmethylamino)phenyl]sulfonyl-2-(1H-pyrrolo[2,3-b]pyridin-5-yloxy)benzamide] |  | 10000 to 25000 | 2000 to 10000 | > 200 | > 50 |  | > 4000 | 
